According to the supplement of paper PMC10307832:

Columns and labels:
Assay in all cases: relative viability (nuclei count vs DMSO), 5 days (fraction); higher = more cells survive
[1] = tested on: 201T
In short: (§1)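 Relative viability equals treated-well nuclei counts divided by vehicle-well nuclei counts. Counts came from 4× images of lung cancer cell lines grown in 1536-well plates for 5 days after pin-tool dosing on the day after seeding. Dosing used one drug alone or a fixed anchor-drug dose plus five library-drug doses (not always all listed) in √10 steps, and values are medians of duplicate plates.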

[2] = tested on: ABC-1
In short: as §1

[3] = tested on: ChaGo-K-1
In short: as §1

[4] = tested on: EKVX
In short: as §1

[5] = tested on: EMC-BAC-2
In short: as §1

[6] = tested on: HCC-44
In short: as §1

[7] = tested on: HCC-78
In short: as §1

[8] = tested on: HOP-62
In short: as §1

[9] = tested on: LC-2-ad
In short: as §1

[10] = tested on: LK-2
In short: as §1

[11] = tested on: NCI-H1355
In short: as §1

[12] = tested on: NCI-H2009
In short: as §1

[13] = tested on: NCI-H2228
In short: as §1

[14] = tested on: NCI-H2347
In short: as §1

[15] = tested on: NCI-H3122
In short: as §1

[16] = tested on: NCI-H838
In short: as §1

[17] = tested on: PC-14
In short: as §1

[18] = tested on: RERF-LC-KJ
In short: as §1

[19] = tested on: SK-MES-1
In short: as §1

[20] = tested on: SW 1573
In short: as §1

[21] = tested on: SW 900
In short: as §1

[22] = tested on: UMC-11
In short: as §1

Question: Which results are given for COCC1(CO)C(=O)C2CCN1CC2 (stereo not given) [PRIMA-1MET] + Cc1cc(Nc2cc(N3CCN(C)CC3)nc(Sc3ccc(NC(=O)C4CC4)cc3)n2)n[nH]1 [Tozasertib] (partner 0.1 µM)?
Answer: relative viability ([1]; first compound 0.2 µM): 1.12; relative viability ([1]; first compound 0.6325 µM): 0.912; relative viability ([1]; first compound 2 µM): 0.899; relative viability ([1]; first compound 6.325 µM): 0.908; relative viability ([1]; first compound 20 µM): 0.905; relative viability ([2]; first compound 0.2 µM): 0.243; relative viability ([2]; first compound 0.6325 µM): 0.188; relative viability ([2]; first compound 2 µM): 0.17; relative viability ([2]; first compound 6.325 µM): 0.145; relative viability ([2]; first compound 20 µM): 0.259; relative viability ([3]; first compound 0.2 µM): 0.209; relative viability ([3]; first compound 0.6325 µM): 0.2; relative viability ([3]; first compound 2 µM): 0.213; relative viability ([3]; first compound 6.325 µM): 0.224; relative viability ([3]; first compound 20 µM): 0.207; relative viability ([4]; first compound 0.2 µM): 0.452; relative viability ([4]; first compound 0.6325 µM): 0.357; relative viability ([4]; first compound 6.325 µM): 0.397; relative viability ([4]; first compound 20 µM): 0.366; relative viability ([5]; first compound 0.2 µM): 0.335; relative viability ([5]; first compound 0.6325 µM): 0.332; relative viability ([5]; first compound 6.325 µM): 0.277; relative viability ([5]; first compound 20 µM): 0.191; relative viability ([6]; first compound 0.2 µM): 1.18; relative viability ([6]; first compound 0.6325 µM): 0.958; relative viability ([6]; first compound 2 µM): 0.811; relative viability ([6]; first compound 6.325 µM): 1.01; relative viability ([6]; first compound 20 µM): 0.827; relative viability ([7]; first compound 0.2 µM): 0.47; relative viability ([7]; first compound 0.6325 µM): 0.414; relative viability ([7]; first compound 6.325 µM): 0.385; relative viability ([7]; first compound 20 µM): 0.228; relative viability ([8]; first compound 0.2 µM): 0.426; relative viability ([8]; first compound 0.6325 µM): 0.341; relative viability ([8]; first compound 2 µM): 0.38; relative viability ([8]; first compound 6.325 µM): 0.383; relative viability ([8]; first compound 20 µM): 0.305; relative viability ([9]; first compound 0.2 µM): 0.422; relative viability ([9]; first compound 2 µM): 0.399; relative viability ([9]; first compound 6.325 µM): 0.429; relative viability ([9]; first compound 20 µM): 0.394; relative viability ([10]; first compound 0.2 µM): 0.189; relative viability ([10]; first compound 0.6325 µM): 0.177; relative viability ([10]; first compound 2 µM): 0.144; relative viability ([10]; first compound 6.325 µM): 0.161; relative viability ([10]; first compound 20 µM): 0.132; relative viability ([11]; first compound 0.2 µM): 0.581; relative viability ([11]; first compound 0.6325 µM): 0.568; relative viability ([11]; first compound 2 µM): 0.564; relative viability ([11]; first compound 6.325 µM): 0.629; relative viability ([11]; first compound 20 µM): 0.517; relative viability ([12]; first compound 0.2 µM): 0.846; relative viability ([12]; first compound 0.6325 µM): 0.742; relative viability ([12]; first compound 2 µM): 0.948; relative viability ([12]; first compound 6.325 µM): 0.726; relative viability ([12]; first compound 20 µM): 0.0462; relative viability ([13]; first compound 0.2 µM): 0.312; relative viability ([13]; first compound 0.6325 µM): 0.262; relative viability ([13]; first compound 2 µM): 0.322; relative viability ([13]; first compound 6.325 µM): 0.203; relative viability ([13]; first compound 20 µM): 0.0992; relative viability ([14]; first compound 0.2 µM): 0.566; relative viability ([14]; first compound 0.6325 µM): 0.531; relative viability ([14]; first compound 2 µM): 0.237; relative viability ([14]; first compound 6.325 µM): 0.516; relative viability ([14]; first compound 20 µM): 0.433; relative viability ([15]; first compound 0.2 µM): 0.524; relative viability ([15]; first compound 0.6325 µM): 0.361; relative viability ([15]; first compound 6.325 µM): 0.388; relative viability ([15]; first compound 20 µM): 0.337; relative viability ([16]; first compound 0.2 µM): 0.291; relative viability ([16]; first compound 0.6325 µM): 0.286; relative viability ([16]; first compound 2 µM): 0.245; relative viability ([16]; first compound 6.325 µM): 0.293; relative viability ([16]; first compound 20 µM): 0.194; relative viability ([17]; first compound 0.2 µM): 0.629; relative viability ([17]; first compound 0.6325 µM): 0.55; relative viability ([17]; first compound 2 µM): 0.519; relative viability ([17]; first compound 6.325 µM): 0.714; relative viability ([17]; first compound 20 µM): 0.386; relative viability ([18]; first compound 0.2 µM): 0.53; relative viability ([18]; first compound 0.6325 µM): 0.523; relative viability ([18]; first compound 2 µM): 0.58; relative viability ([18]; first compound 6.325 µM): 0.498; relative viability ([18]; first compound 20 µM): 0.431; relative viability ([19]; first compound 0.2 µM): 1.02; relative viability ([19]; first compound 0.6325 µM): 0.888; relative viability ([19]; first compound 2 µM): 0.962; relative viability ([19]; first compound 6.325 µM): 0.876; relative viability ([19]; first compound 20 µM): 0.907; relative viability ([20]; first compound 0.2 µM): 0.189; relative viability ([20]; first compound 0.6325 µM): 0.0874; relative viability ([20]; first compound 2 µM): 0.191; relative viability ([20]; first compound 6.325 µM): 0.0585; relative viability ([20]; first compound 20 µM): 0.0263; relative viability ([21]; first compound 0.2 µM): 0.784; relative viability ([21]; first compound 0.6325 µM): 0.465; relative viability ([21]; first compound 2 µM): 0.524; relative viability ([21]; first compound 6.325 µM): 0.388; relative viability ([21]; first compound 20 µM): 0.084; relative viability ([22]; first compound 0.2 µM): 0.215; relative viability ([22]; first compound 0.6325 µM): 0.183; relative viability ([22]; first compound 2 µM): 0.195; relative viability ([22]; first compound 6.325 µM): 0.193; relative viability ([22]; first compound 20 µM): 0.201
